In ChEMBL document CHEMBL2062364, “Discovery and optimization of new benzimidazole- and benzoxazole-pyrimidone selective PI3Kβ inhibitors for the treatment of phosphatase and TENsin homologue (PTEN)-deficient cancers” (J Med Chem, 2012):

How the values were obtained:
Plasma = assay: Plasma concentration in SCID mouse xenografted with PTEN-deficient human PC3 cells at 300 mg/kg, po BID measured after day 4; format: ADME, organism-based, PC-3; parameters: dose 300 mg/kg, route oral; details: in vivo
[1] = C0 in CB17/ICR-Prkdc SCID mouse at 6 mg/kg, iv; format: ADME, organism-based; parameters: dose 6 mg/kg, route intravenous; details: in vivo
[2] = AUC (0 to Tlast) in CB17/ICR-Prkdc SCID mouse at 6 mg/kg, iv; format: ADME, organism-based; parameters: dose 6 mg/kg, route intravenous; details: plasma
[3] = Plasma concentration in SCID mouse xenografted with PTEN-deficient human PC3 cells at 300 mg/kg, po BID measured after 1 hr; format: ADME, organism-based, PC-3; parameters: dose 300 mg/kg, route oral
PC-3 = assay: Antitumor activity against PTEN-deficient human PC3 cells xenografted in SCID mouse assessed as tumor growth inhibition at 300 mg/kg, po BID for 9 days measured on day 32 relative to control; format: functional
[4] = molecular target: Phosphatidylinositol 4,5-bisphosphate 3-kinase catalytic subunit gamma isoform (Homo sapiens, UniProt P48736); assay: Inhibition of N-terminus poly-His tagged human PI3Kgamma expressed in baculovirus infected insect sf9 cells using PI(4,5)P2 as substrate preincubated with compound for 15 mins measured after 10 mins by HTRF assay
Sequence of Phosphatidylinositol 4,5-bisphosphate 3-kinase catalytic subunit gamma isoform (P48736 whole entry, canonical isoform): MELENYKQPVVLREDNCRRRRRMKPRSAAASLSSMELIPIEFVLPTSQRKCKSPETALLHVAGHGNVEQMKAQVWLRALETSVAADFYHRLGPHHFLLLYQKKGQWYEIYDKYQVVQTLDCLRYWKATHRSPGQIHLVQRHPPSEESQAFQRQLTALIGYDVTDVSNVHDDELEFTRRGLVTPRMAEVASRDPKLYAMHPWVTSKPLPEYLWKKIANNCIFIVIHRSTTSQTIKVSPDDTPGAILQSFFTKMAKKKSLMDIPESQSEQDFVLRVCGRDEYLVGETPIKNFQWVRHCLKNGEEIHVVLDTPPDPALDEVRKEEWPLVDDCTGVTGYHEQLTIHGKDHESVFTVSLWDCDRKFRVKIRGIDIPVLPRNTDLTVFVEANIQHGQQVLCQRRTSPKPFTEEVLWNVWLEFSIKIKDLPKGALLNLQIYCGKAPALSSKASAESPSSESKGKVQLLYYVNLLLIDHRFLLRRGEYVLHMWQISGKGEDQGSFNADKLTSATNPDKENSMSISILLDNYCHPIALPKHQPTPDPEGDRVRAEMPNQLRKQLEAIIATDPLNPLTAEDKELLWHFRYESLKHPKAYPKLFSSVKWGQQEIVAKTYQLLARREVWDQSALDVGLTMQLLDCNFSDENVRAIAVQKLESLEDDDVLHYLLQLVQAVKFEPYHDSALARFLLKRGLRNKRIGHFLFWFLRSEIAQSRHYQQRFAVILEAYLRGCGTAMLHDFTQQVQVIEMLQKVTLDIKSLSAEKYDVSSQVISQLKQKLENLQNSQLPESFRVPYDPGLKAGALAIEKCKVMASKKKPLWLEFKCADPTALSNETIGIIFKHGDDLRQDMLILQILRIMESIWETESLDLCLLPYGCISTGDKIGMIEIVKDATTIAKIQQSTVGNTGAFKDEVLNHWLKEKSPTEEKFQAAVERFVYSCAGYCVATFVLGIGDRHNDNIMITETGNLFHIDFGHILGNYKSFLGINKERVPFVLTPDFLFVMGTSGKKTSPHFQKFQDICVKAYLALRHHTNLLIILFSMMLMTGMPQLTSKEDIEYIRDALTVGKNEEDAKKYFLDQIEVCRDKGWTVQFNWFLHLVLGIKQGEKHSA

[5] = Oral bioavailability in CB17/ICR-Prkdc SCID mouse at 10 mg/kg; format: ADME, organism-based; details: in vivo
Nucleic Acid = assay: Ratio of drug uptake in plasma to tumor of SCID mouse xenografted with PTEN-deficient human PC3 cells at 300 mg/kg, po BID measured after 0.5 to 24 hrs; format: ADME, organism-based, PC-3; parameters: dose 300 mg/kg, route oral; details: in vivo
[6] = molecular target: T1, Phosphatidylinositol 4,5-bisphosphate 3-kinase catalytic subunit delta isoform (Homo sapiens, UniProt O00329); assay: Inhibition of human PI3Kdelta-mediated Akt phosphorylation at Ser473 residue expressed in mouse MEF-3T3 cells after 0.5 to 2 hrs by Western blot analysis; format: cell-based
T1 sequence (O00329 whole entry): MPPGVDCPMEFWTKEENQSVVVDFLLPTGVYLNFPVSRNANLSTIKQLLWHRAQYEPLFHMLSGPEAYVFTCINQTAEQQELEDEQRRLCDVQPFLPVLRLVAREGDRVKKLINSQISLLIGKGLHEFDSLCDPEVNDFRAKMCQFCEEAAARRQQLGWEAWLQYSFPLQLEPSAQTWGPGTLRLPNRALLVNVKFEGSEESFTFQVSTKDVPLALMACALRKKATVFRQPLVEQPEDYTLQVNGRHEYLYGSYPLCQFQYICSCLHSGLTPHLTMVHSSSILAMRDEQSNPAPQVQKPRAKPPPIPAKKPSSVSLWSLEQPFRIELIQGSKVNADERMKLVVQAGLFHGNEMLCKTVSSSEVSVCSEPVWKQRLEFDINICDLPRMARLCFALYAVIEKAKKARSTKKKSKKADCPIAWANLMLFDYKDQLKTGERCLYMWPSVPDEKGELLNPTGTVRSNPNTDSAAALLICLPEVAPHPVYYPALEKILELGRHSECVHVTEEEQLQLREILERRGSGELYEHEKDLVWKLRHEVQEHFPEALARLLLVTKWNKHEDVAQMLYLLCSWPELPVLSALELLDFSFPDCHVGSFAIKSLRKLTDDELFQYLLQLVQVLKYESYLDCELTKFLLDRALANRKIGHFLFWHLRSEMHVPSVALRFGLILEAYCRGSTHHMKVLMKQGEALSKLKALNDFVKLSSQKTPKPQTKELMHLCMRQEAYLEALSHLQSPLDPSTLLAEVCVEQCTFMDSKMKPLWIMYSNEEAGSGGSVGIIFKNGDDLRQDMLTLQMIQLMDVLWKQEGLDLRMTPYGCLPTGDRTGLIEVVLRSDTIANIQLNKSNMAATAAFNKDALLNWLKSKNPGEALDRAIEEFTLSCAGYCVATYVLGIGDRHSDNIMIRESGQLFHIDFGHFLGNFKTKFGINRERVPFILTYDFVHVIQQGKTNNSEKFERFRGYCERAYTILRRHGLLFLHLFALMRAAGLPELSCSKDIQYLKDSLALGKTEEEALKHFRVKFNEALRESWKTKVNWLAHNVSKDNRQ

Mus musculus [7] = assay: Tlast in CB17/ICR-Prkdc SCID mouse at 10 mg/kg, po; format: ADME, organism-based; parameters: dose 10 mg/kg, route oral; details: in vivo
[8] = molecular target: Phosphatidylinositol 4,5-bisphosphate 3-kinase catalytic subunit alpha isoform (Homo sapiens, UniProt P42336); assay: Inhibition of N-terminus poly-His tagged human PI3Kalpha expressed in baculovirus infected insect sf9 cells coexpressing p85alpha using PI(4,5)P2 as substrate preincubated with compound for 15 mins measured after 10 mins by HTRF assay
Sequence of Phosphatidylinositol 4,5-bisphosphate 3-kinase catalytic subunit alpha isoform (P42336 whole entry, canonical isoform): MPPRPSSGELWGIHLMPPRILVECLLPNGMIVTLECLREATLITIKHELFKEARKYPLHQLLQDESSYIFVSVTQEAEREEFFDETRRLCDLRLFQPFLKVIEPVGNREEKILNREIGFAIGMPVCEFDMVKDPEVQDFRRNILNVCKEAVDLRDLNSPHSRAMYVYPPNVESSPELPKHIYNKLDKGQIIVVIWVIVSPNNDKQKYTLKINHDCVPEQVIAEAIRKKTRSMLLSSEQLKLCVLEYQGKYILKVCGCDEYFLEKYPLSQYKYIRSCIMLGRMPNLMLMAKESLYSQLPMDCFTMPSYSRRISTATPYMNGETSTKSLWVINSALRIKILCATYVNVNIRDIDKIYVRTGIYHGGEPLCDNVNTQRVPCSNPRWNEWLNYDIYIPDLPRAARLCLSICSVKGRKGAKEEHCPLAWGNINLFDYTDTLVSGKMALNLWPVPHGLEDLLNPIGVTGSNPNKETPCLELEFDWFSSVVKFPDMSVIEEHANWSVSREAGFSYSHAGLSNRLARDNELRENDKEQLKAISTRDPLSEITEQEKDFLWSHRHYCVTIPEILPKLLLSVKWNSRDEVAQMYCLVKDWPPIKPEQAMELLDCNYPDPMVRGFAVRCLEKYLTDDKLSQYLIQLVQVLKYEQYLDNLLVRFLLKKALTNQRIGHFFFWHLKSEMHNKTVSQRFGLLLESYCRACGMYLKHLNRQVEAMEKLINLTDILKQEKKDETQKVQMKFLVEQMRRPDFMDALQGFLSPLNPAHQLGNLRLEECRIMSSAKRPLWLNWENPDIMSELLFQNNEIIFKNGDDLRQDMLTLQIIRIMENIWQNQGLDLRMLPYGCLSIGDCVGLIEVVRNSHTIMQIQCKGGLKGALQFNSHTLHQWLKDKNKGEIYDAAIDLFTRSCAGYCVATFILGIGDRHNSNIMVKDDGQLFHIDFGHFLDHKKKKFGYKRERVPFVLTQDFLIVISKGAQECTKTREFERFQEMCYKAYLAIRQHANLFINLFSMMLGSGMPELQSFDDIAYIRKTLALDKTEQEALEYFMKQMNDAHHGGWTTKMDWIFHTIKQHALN

[9] = Terminal half life in CB17/ICR-Prkdc SCID mouse at 6 mg/kg, iv; format: ADME, organism-based; parameters: dose 6 mg/kg, route intravenous; details: in vivo, read-out: beta t1/2 (converted)
[10] = Apparent permeability of the compound across human Caco2 cells; format: ADME, cell-based; details: Caco-2
[11] = molecular target: T2, Phosphatidylinositol 4,5-bisphosphate 3-kinase catalytic subunit beta isoform (Homo sapiens, UniProt P42338); assay: Inhibition of N-terminus poly-His tagged human PI3Kbeta expressed in baculovirus infected insect […] cells coexpressing p85alpha using PI(4,5)P2 as substrate preincubated with compound for 15 mins measured after 10 mins by HTRF assay
T2 sequence (P42338 whole entry, canonical isoform): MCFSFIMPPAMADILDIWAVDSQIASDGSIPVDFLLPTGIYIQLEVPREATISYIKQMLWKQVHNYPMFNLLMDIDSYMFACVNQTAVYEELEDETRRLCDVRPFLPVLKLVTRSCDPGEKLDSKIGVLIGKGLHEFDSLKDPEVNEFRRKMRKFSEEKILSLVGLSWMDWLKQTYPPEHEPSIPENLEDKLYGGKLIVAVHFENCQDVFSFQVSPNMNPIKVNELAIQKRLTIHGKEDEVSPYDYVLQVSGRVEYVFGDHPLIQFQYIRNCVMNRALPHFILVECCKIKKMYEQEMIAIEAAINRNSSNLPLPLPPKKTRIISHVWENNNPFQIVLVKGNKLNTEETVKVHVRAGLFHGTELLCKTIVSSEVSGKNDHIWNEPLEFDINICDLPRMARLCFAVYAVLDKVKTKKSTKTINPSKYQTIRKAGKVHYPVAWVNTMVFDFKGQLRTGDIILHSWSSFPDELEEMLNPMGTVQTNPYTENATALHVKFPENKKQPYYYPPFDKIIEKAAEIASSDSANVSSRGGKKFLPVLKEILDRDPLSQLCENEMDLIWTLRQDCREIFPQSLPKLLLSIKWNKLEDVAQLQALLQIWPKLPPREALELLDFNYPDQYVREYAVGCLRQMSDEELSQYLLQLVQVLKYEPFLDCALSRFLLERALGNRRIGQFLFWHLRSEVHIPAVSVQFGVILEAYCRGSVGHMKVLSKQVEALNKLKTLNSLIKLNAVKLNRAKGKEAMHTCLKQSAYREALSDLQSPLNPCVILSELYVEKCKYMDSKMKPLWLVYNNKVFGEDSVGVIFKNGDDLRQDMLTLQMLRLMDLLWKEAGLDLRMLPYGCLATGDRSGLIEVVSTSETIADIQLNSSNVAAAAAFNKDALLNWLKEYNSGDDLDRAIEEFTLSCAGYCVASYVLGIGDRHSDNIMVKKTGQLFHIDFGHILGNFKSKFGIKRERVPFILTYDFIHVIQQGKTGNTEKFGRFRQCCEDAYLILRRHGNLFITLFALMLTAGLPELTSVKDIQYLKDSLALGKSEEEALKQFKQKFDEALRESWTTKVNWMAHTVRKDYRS

Cytochrome P450 3A4 = Cytochrome P450 3A4 (Homo sapiens, UniProt P08684); assay: Inhibition of human recombinant CPY3A4
Sequence of Cytochrome P450 3A4 (P08684 whole entry, canonical isoform): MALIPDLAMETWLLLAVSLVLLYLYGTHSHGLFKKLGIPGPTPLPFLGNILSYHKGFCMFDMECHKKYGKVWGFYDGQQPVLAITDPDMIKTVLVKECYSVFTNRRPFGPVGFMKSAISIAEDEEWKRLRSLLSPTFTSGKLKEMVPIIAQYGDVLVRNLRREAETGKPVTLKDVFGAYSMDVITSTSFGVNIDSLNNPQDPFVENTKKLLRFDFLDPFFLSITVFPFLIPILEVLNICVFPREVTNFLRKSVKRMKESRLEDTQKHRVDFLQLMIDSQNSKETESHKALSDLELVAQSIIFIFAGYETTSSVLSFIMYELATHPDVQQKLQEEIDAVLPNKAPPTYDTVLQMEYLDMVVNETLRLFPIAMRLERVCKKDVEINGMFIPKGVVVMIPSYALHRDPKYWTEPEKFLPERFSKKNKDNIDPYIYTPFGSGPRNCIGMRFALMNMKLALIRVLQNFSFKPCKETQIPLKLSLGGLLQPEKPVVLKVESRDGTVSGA

[12] = molecular target: T2, Phosphatidylinositol 4,5-bisphosphate 3-kinase catalytic subunit beta isoform; assay: Inhibition of human PI3Kbeta-mediated Akt phosphorylation at Ser473 residue expressed in mouse MEF-3T3 cells after 0.5 to 2 hrs by Western blot analysis; format: cell-based
Mus musculus [13] = assay: Toxicity in SCID mouse bearing PTEN-deficient human PC3 cells at 300 mg/kg, po BID for 9 days; format: organism-based, PC-3; parameters: dose 300 mg/kg, route oral; details: in vivo, 216 h

In the case of `Cn1c(Cc2nc(N3CCOCC3)cc(=O)[nH]2)nc2ccccc21`, the Drug uptake (Plasma) is reported as “Active”, the C0 [1] is reported as 4870 ng/mL and the AUC(0-t) [2] is reported as 1950 ng·h/mL. For the same compound, the concentration at 1 h [3] was 22 µM, the T/C (PC-3) was 45% and the IC50 [4] was greater than 10000 nM. For the same compound, the bioavailability [5] was 26%, the Ratio (Nucleic Acid) was 1 and the IC50 [6] was 2650 nM. For the same compound, the Tlast (Mus musculus [7]) was 24 h, the IC50 [8] was greater than 10000 nM and the half-life [9] was 4.4 h. The Papp [10] was 3 ×10⁻⁶ cm/s, the IC50 [11] was 99 nM and the IC50 (Cytochrome P450 3A4) was greater than 40000 nM. For the same compound, the IC50 [12] was 86 nM and the Activity (Mus musculus [13]) was “Non-toxic”.
